# Assay results published in patent publication US20150274661A1, “INDOL-AMIDE COMPOUNDS AS BETA-AMYLOID INHBITORS” (Hoffmann-La Roche Inc., priority 2012, published 2015).
# Test system: Aβ42 secretion
# Assay: Cellular γ-secretase assay (inhibition of Aβ42 secretion)
# Format: cell-based
# Details: Homo sapiens, 22 h, human neuroglioma H4 cells overexpressing human APP, 22 hours incubation
# Procedure: Cellular γ-Secretase Assay
# The compounds were investigated in accordance with the test given hereinafter.
# Human neuroglioma H4 cells overexpressing human APP were plated at 30,000 cells/well/200 μL in 96-well plates in IMDM media containing 10% FCS, […] Hygromycin B and incubated for 2 hours at 37° C., 5% CO2 prior to adding test compounds.
# Compounds for testing were dissolved in 100% Me2SO yielding in a 10 mM stock solution. Typically 12 μL of these solutions were further diluted in 1000 μL of IMDM media (w/o FCS). Subsequent 1:1 dilutions gave a ten point dose response curve. 100 μL of each dilution was added to the cells in 96-well plates. Appropriate controls using vehicle only and reference compound were applied to this assay. The final concentration of Me2SO was 0.4%.
# After incubation for 22 hours at 37° C., 5% CO2, 50 μL supernatant was transferred into round-bottom 96-well polypropylene plates for detection of Aβ42. 50 μL assay buffer (50 mM Tris/Cl, pH 7.4, 60 mM NaCl, 0.5% BSA, 1% TWEEN 20) was added to the wells followed by the addition of 100 μL of detection antibody (ruthenylated BAP15 0.0625 μg/mL in assay buffer). 50 μL of a premix of capture antibody (biotinylated 6E10 antibody, 1 μg/mL) and Streptavidin-coated magnetic beads (Dynal M-280, 0.125 mg/mL) were preincubated for 1 hour at room temperature before adding the assay plates. Assay plates were incubated on a shaker for 3 hours at room temperature and finally read in the Bioveris M8 Analyser according to the manufacturer's instructions (Bioveris).
# IC50 values for inhibition of Aβ42 secretion were calculated by nonlinear regression fit analysis using XLfit 4.0 software (IDBS).
row,EC50 [µM],SMILES
1,0.795,"O=C(Nc1cc(F)cc(F)c1)c1cc2cc(C3CCN(Cc4ccccc4)C3)ccc2[nH]1 (stereo not drawn) [Example 1, 5-(1-Benzylpyrrolidin-3-yl)-N-(3,5-difluorophenyl)-1H-indole-2-carboxamide]"
2,1.24,"O=C(Nc1cccc(F)c1)c1cc2cc(C3CCN(Cc4ccccc4)C3)ccc2[nH]1 (stereo not drawn) [Example 3, 5-(1-Benzylpyrrolidin-3-yl)-N-(3-fluorophenyl)-1H-indole-2-carboxamide]"
3,0.402,"CN1CCC(c2ccc3[nH]c(C(=O)Nc4cccc(F)c4)cc3c2)C1 (stereo not drawn) [Example 4, N-(3-Fluorophenyl)-5-(1-methylpyrrolidin-3-yl)-1H-indole-2-carboxamide]"
4,0.631,"N#Cc1cc(F)cc(NC(=O)c2cc3cc(C4CCN(Cc5ccccc5)C4)ccc3[nH]2)c1 (stereo not drawn) [Example 5, 5-(1-Benzylpyrrolidin-3-yl)-N-(3-cyano-5-fluorophenyl)-1H-indole-2-carboxamide]"
5,1.42,"CN1CCC(c2ccc3[nH]c(C(=O)Nc4cc(F)cc(C#N)c4)cc3c2)C1 (stereo not drawn) [Example 6, N-(3-Cyano-5-fluorophenyl)-5-(1-methylpyrrolidin-3-yl)-1H-indole-2-carboxamide]"
6,0.253,"O=C(Nc1cc(F)cc(F)c1)c1cc2cc(C3CCNC3)ccc2[nH]1 (stereo not drawn) [Example 7, 5-Pyrrolidin-3-yl-1H-indole-2-carboxylic acid (3,5-difluoro-phenyl)-amide]"
7,0.627,"O=C(Nc1cccc(F)c1)c1cc2cc(C3CCNC3)ccc2[nH]1 (stereo not drawn) [Example 8, N-(3-Fluorophenyl)-5-(pyrrolidin-3-yl)-1H-indole-2-carboxamide]"
8,1.27,"N#Cc1cc(F)cc(NC(=O)c2cc3cc(C4CCNC4)ccc3[nH]2)c1 (stereo not drawn) [Example 9, N-(3-Cyano-5-fluorophenyl)-5-(pyrrolidin-3-yl)-1H-indole-2-carboxamide]"
9,3.83,"O=C(Nc1cc(F)cc(F)c1)c1cc2cc(C3CCN(CC(F)(F)F)C3)ccc2[nH]1 (stereo not drawn) [Example 10, 5-[1-(2,2,2-Trifluoro-ethyl)-pyrrolidin-3-yl]-1H-indole-2-carboxylic acid (3,5-difluoro-phenyl)-amide]"
10,0.321,"CC(C)N1CCC(c2ccc3[nH]c(C(=O)Nc4cc(F)cc(F)c4)cc3c2)C1 (stereo not drawn) [Example 11, 5-(1-Isopropyl-pyrrolidin-3-yl)-1H-indole-2-carboxylic acid (3,5-difluoro-phenyl)-amide]"
11,0.713,"CC(C)C(=O)N1CCC(c2ccc3[nH]c(C(=O)Nc4cc(F)cc(F)c4)cc3c2)C1 (stereo not drawn) [Example 13, 5-(1-Isobutyryl-pyrrolidin-3-yl)-1H-indole-2-carboxylic acid (3,5-difluoro-phenyl)-amide]"
12,0.519,"CC(C)N1CCC(c2ccc3[nH]c(C(=O)Nc4cccc(F)c4)cc3c2)C1 (stereo not drawn) [Example 14, N-(3-Fluorophenyl)-5-(1-isopropylpyrrolidin-3-yl)-1H-indole-2-carboxamide]"
13,1.25,"O=C(Nc1cccc(F)c1)c1cc2cc(C3CCN(CC(F)(F)F)C3)ccc2[nH]1 (stereo not drawn) [Example 15, N-(3-Fluorophenyl)-5-(1-(2,2,2-trifluoroethyl)pyrrolidin-3-yl)-1H-indole-2-carboxamide]"
14,0.373,"N#CCN1CCC(c2ccc3[nH]c(C(=O)Nc4cccc(F)c4)cc3c2)C1 (stereo not drawn) [Example 16, 5-(1-(Cyanomethyl)pyrrolidin-3-yl)-N-(3-fluorophenyl)-1H-indole-2-carboxamide]"
15,8.46,"O=C(Nc1cccc(F)c1)c1cc2cc(C3CC(=O)N(Cc4ccccc4)C3=O)ccc2[nH]1 (stereo not drawn) [Example 17, 5-(1-Benzyl-2,5-dioxopyrrolidin-3-yl)-N-(3-fluorophenyl)-1H-indole-2-carboxamide]"
16,2.32,"CC(C)C1(c2ccc3[nH]c(C(=O)Nc4ccc(F)c(F)c4)cc3c2)CNC(=O)C1 (stereo not drawn) [Example 18, 5-(3-Isopropyl-5-oxo-pyrrolidin-3-yl)-1H-indole-2-carboxylic acid (3,4-difluoro-phenyl)-amide]"
17,2.63,"CCC1(c2ccc3[nH]c(C(=O)Nc4cc(F)cc(F)c4)cc3c2)CCC(=O)NC1=O (stereo not drawn) [Example 19, 5-(3-Ethyl-2,6-dioxo-piperidin-3-yl)-1H-indole-2-carboxylic acid (3,5-difluoro-phenyl)-amide]"

row,EC50 [µM],SMILES
1,0.832,"CC(C)N1CCC(c2ccc3[nH]c(C(=O)Nc4cccc(F)c4)cc3c2)CC1 [Example 20, 5-(1-Isopropyl-piperidin-4-yl)-1H-indole-2-carboxylic acid (3-fluoro-phenyl)-amide]"
2,0.177,"CC(C)N1CCCC(c2ccc3[nH]c(C(=O)Nc4cc(F)cc(F)c4)cc3c2)C1 (stereo not drawn) [Example 21, 5-(1-Isopropyl-piperidin-3-yl)-1H-indole-2-carboxylic acid (3,5-difluoro-phenyl)-amide]"
3,2.27,"CC(C)N1CCC(c2ccc3[nH]c(C(=O)Nc4cccc(C(F)(F)F)c4)cc3c2)CC1 [Example 22, 5-(1-Isopropyl-piperidin-4-yl)-1H-indole-2-carboxylic acid (3-trifluoromethyl-phenyl)-amide]"
4,0.897,"CC(C)N1CCC(c2ccc3[nH]c(C(=O)Nc4cccc(Cl)c4)cc3c2)CC1 [Example 23, 5-(1-Isopropyl-piperidin-4-yl)-1H-indole-2-carboxylic acid (3-chloro-phenyl)-amide]"
5,19.4,"CC(C)N1CCC(c2ccc3[nH]c(C(=O)Nc4ccccc4F)cc3c2)CC1 [Example 24, 5-(1-Isopropyl-piperidin-4-yl)-1H-indole-2-carboxylic acid (2-fluoro-phenyl)-amide]"
6,2.68,"COc1cccc(NC(=O)c2cc3cc(C4CCN(C(C)C)CC4)ccc3[nH]2)c1 [Example 25, 5-(1-Isopropyl-piperidin-4-yl)-1H-indole-2-carboxylic acid (3-methoxy-phenyl)-amide]"
7,10.9,"COc1ccc(NC(=O)c2cc3cc(C4CCN(C(C)C)CC4)ccc3[nH]2)cc1 [Example 26, 5-(1-Isopropyl-piperidin-4-yl)-1H-indole-2-carboxylic acid (4-methoxy-phenyl)-amide]"
8,8.36,"CC(C)N1CCC(c2ccc3[nH]c(C(=O)Nc4ccc(C(C)(C)C)cc4)cc3c2)CC1 [Example 27, 5-(1-Isopropyl-piperidin-4-yl)-1H-indole-2-carboxylic acid (4-tert-butyl-phenyl)-amide]"
9,0.852,"CC(C)N1CCC(c2ccc3[nH]c(C(=O)Nc4ccc(F)c(F)c4)cc3c2)CC1 [Example 28, 5-(1-Isopropyl-piperidin-4-yl)-1H-indole-2-carboxylic acid (3,4-difluoro-phenyl)-amide]"
10,12.6,"CC(C)N1CCC(c2ccc3[nH]c(C(=O)Nc4ccc(F)cc4F)cc3c2)CC1 [Example 29, 5-(1-Isopropyl-piperidin-4-yl)-1H-indole-2-carboxylic acid (2,4-difluoro-phenyl)-amide]"
11,0.742,"CC(C)N1CCCC(c2ccc3[nH]c(C(=O)Nc4cc(F)cc(Cl)c4)cc3c2)C1 (stereo not drawn) [Example 30, N-(3-Chloro-5-fluorophenyl)-5-(1-isopropylpiperidin-3-yl)-1H-indole-2-carboxamide]"
12,2.38,"CC(C)N1CCCC(c2ccc3[nH]c(C(=O)Nc4cc(F)cc(C#N)c4)cc3c2)C1 (stereo not drawn) [Example 31, 5-(1-Isopropyl-piperidin-3-yl)-1H-indole-2-carboxylic acid (3-cyano-5-fluoro-phenyl)-amide]"
13,8.15,"CC(C)N1CCC(c2ccc3[nH]c(C(=O)Nc4ccc(F)nc4)cc3c2)CC1 [Example 32, 5-(1-Isopropyl-piperidin-4-yl)-1H-indole-2-carboxylic acid (6-fluoro-pyridin-3-yl)-amide]"
14,1.58,"Cc1cccc(NC(=O)c2cc3cc(C4CCCN(C(C)C)C4)ccc3[nH]2)c1 (stereo not drawn) [Example 33, 5-(1-Isopropyl-piperidin-3-yl)-1H-indole-2-carboxylic acid m-tolylamide]"
15,0.926,"Cc1cc(F)cc(NC(=O)c2cc3cc(C4CCCN(C(C)C)C4)ccc3[nH]2)c1 (stereo not drawn) [Example 34, N-(3-Fluoro-5-methylphenyl)-5-(1-isopropylpiperidin-3-yl)-1H-indole-2-carboxamide]"
16,1.39,"O=C(Nc1ccc(F)cc1)c1cc2cc(C3CCN(C(=O)c4ccccc4)CC3)ccc2[nH]1 [Example 35, 5-(1-Benzoyl-piperidin-4-yl)-1H-indole-2-carboxylic acid (4-fluoro-phenyl)-amide]"
17,1.09,"CN1CCC(c2ccc3[nH]c(C(=O)Nc4ccc(F)cc4)cc3c2)CC1 [Example 36, 5-(1-Methyl-piperidin-4-yl)-1H-indole-2-carboxylic acid (4-fluoro-phenyl)-amide]"

# Same assay, conditions: human neuroglioma H4 cells overexpressing human APP, 22 hours incubation
row,EC50 [µM],SMILES
1,0.178,"CN1CCC(c2ccc3[nH]c(C(=O)Nc4cc(F)cc(F)c4)cc3c2)C1 (stereo not drawn) [Example 2, 5-(1-Methyl-pyrrolidin-3-yl)-1H-indole-2-carboxylic acid (3,5-difluoro-phenyl)-amide]"
2,1.71,"CC(C)S(=O)(=O)N1CCC(c2ccc3[nH]c(C(=O)Nc4cc(F)cc(F)c4)cc3c2)C1 (stereo not drawn) [Example 12, 5-[1-(Propane-2-sulfonyl)-pyrrolidin-3-yl]-1H-indole-2-carboxylic acid (3,5-difluoro-phenyl)-amide]"
